Data as given in ChEMBL document CHEMBL1201862, “PubChem BioAssay data set” (2004).
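Compound exposure: 48 hours, 5 concentrations, 96-well plates. Abbreviation: GI50, concentration required for 50% inhibition of growth.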 Activity calls are given as the source filed them. Rule as the data show it: active = GI50 up to about 1.1 µM and inactive = higher.

Key:
Test in all cases: NCI-60 cell line screen, 48 h
UO-31 = test system: UO-31
SK-MEL-5 = test system: SK-MEL-5
T47D = test system: T47D
HT-29 = test system: HT-29
MDA-MB-231 = test system: MDA-MB-231
OVCAR-8 = test system: OVCAR-8
MOLT-4 = test system: MOLT-4
MDA-MB-435 = test system: MDA-MB-435
LOX IMVI = test system: LOX IMVI
ACHN = test system: ACHN
A498 = test system: A498
HOP-92 = test system: HOP-92
NCI/ADR-RES = test system: NCI/ADR-RES
SW-620 = test system: SW-620
IGROV-1 = test system: IGROV-1
Malme-3M = test system: Malme-3M
NCI-H460 = test system: NCI-H460
SNB-75 = test system: SNB-75
SR = test system: SR
SK-OV-3 = test system: SK-OV-3
EKVX = test system: EKVX
U-251 = test system: U-251
OVCAR-3 = test system: OVCAR-3
PC-3 = test system: PC-3
SF-295 = test system: SF-295
TK-10 = test system: TK-10
OVCAR-4 = test system: OVCAR-4
HCC 2998 = test system: HCC 2998
SF-268 = test system: SF-268
786-0 = test system: 786-0
NCI-H226 = test system: NCI-H226
CAKI-1 = test system: CAKI-1
Hs-578T = test system: Hs-578T
K562 = test system: K562
SF-539 = test system: SF-539
CCRF-CEM = test system: CCRF-CEM
NCI-H522 = test system: NCI-H522
A549 = test system: A549
SN12C = test system: SN12C
HCT-116 = test system: HCT-116
BT-549 = test system: BT-549
MCF7 = test system: MCF7
NCI-H23 = test system: NCI-H23
RXF 393 = test system: RXF 393
HOP-62 = test system: HOP-62
UACC-62 = test system: UACC-62
UACC-257 = test system: UACC-257
OVCAR-5 = test system: OVCAR-5
MDA-N = test system: MDA-N
DU-145 = test system: DU-145
RPMI-8226 = test system: RPMI-8226
HCT-15 = test system: HCT-15
SK-MEL-28 = test system: SK-MEL-28
HL-60 = test system: HL-60
SK-MEL-2 = test system: SK-MEL-2
M14 = test system: M14
SNB-19 = test system: SNB-19
KM12 = test system: KM12
COLO 205 = test system: COLO 205

## O=c1c2cccnc2n2n1Cc1ccccc1C2
UO-31
  GI50: > 100 µM (inactive)
SK-MEL-5
  GI50: > 100 µM (inactive)
T47D
  GI50: > 100 µM (inactive)
HT-29
  GI50: > 100 µM (inactive)
MDA-MB-231
  GI50: > 100 µM (inactive)
OVCAR-8
  GI50: > 100 µM (inactive)
MOLT-4
  GI50: > 100 µM (inactive)
MDA-MB-435
  GI50: > 100 µM (inactive)
LOX IMVI
  GI50: > 100 µM (inactive)
ACHN
  GI50: > 100 µM (inactive)
A498
  GI50: > 100 µM (inactive)
HOP-92
  GI50: > 100 µM (inactive)
NCI/ADR-RES
  GI50: > 100 µM (inactive)
SW-620
  GI50: > 100 µM (inactive)
IGROV-1
  GI50: > 100 µM (inactive)
Malme-3M
  GI50: > 100 µM (inactive)
NCI-H460
  GI50: > 100 µM (inactive)
SNB-75
  GI50: > 100 µM (inactive)
SR
  GI50: > 100 µM (inactive)
SK-OV-3
  GI50: > 100 µM (inactive)
EKVX
  GI50: 71.3 µM (inactive)
U-251
  GI50: > 100 µM (inactive)
OVCAR-3
  GI50: > 100 µM (inactive)
PC-3
  GI50: > 100 µM (inactive)
SF-295
  GI50: > 100 µM (inactive)
TK-10
  GI50: > 100 µM (inactive)
OVCAR-4
  GI50: > 100 µM (inactive)
HCC 2998
  GI50: > 100 µM (inactive)
SF-268
  GI50: > 100 µM (inactive)
786-0
  GI50: > 100 µM (inactive)
NCI-H226
  GI50: > 100 µM (inactive)
CAKI-1
  GI50: > 100 µM (inactive)
Hs-578T
  GI50: > 100 µM (inactive)
K562
  GI50: > 100 µM (inactive)
SF-539
  GI50: > 100 µM (inactive)
CCRF-CEM
  GI50: > 100 µM (inactive)
NCI-H522
  GI50: > 100 µM (inactive)
A549
  GI50: > 100 µM (inactive)
SN12C
  GI50: > 100 µM (inactive)
HCT-116
  GI50: > 100 µM (inactive)
BT-549
  GI50: > 100 µM (inactive)
MCF7
  GI50: > 100 µM (inactive)
NCI-H23
  GI50: > 100 µM (inactive)
RXF 393
  GI50: > 100 µM (inactive)
HOP-62
  GI50: > 100 µM (inactive)
UACC-62
  GI50: > 100 µM (inactive)
UACC-257
  GI50: > 100 µM (inactive)
OVCAR-5
  GI50: > 100 µM (inactive)
MDA-N
  GI50: > 100 µM (inactive)
DU-145
  GI50: > 100 µM (inactive)
RPMI-8226
  GI50: > 100 µM (inactive)
HCT-15
  GI50: > 100 µM
SK-MEL-28
  GI50: > 100 µM (inactive)
HL-60
  GI50: > 100 µM (inactive)

## Sc1nn2c(COc3cc(Cl)c(OCc4nnc5sc(S)nn45)cc3Cl)nnc2s1
UO-31
  GI50: 31.3 µM (inactive)
SK-MEL-5
  GI50: 41.2 µM (inactive)
T47D
  GI50: 26 µM (inactive)
HT-29
  GI50: 43.3 µM (inactive)
MDA-MB-231
  GI50: > 100 µM (inactive)
OVCAR-8
  GI50: 88.5 µM (inactive)
MOLT-4
  GI50: 31.3 µM (inactive)
MDA-MB-435
  GI50: 43.9 µM (inactive)
LOX IMVI
  GI50: 32.8 µM (inactive)
ACHN
  GI50: 36.1 µM (inactive)
A498
  GI50: > 100 µM (inactive)
HOP-92
  GI50: 38.9 µM (inactive)
NCI/ADR-RES
  GI50: > 100 µM (inactive)
SW-620
  GI50: 30.3 µM (inactive)
SK-MEL-2
  GI50: > 100 µM (inactive)
IGROV-1
  GI50: 41.6 µM (inactive)
Malme-3M
  GI50: 40.1 µM (inactive)
M14
  GI50: > 100 µM (inactive)
NCI-H460
  GI50: > 100 µM (inactive)
SNB-19
  GI50: > 100 µM (inactive)
SNB-75
  GI50: 82 µM (inactive)
SR
  GI50: 30.1 µM (inactive)
SK-OV-3
  GI50: > 100 µM (inactive)
EKVX
  GI50: 5.51 µM (inactive)
U-251
  GI50: > 100 µM (inactive)
OVCAR-3
  GI50: 30.5 µM (inactive)
PC-3
  GI50: > 100 µM (inactive)
SF-295
  GI50: > 100 µM (inactive)
TK-10
  GI50: > 100 µM (inactive)
OVCAR-4
  GI50: 51.8 µM (inactive)
HCC 2998
  GI50: 36.1 µM (inactive)
SF-268
  GI50: 44.6 µM (inactive)
786-0
  GI50: 39.5 µM (inactive)
NCI-H226
  GI50: > 100 µM (inactive)
CAKI-1
  GI50: > 100 µM (inactive)
Hs-578T
  GI50: > 100 µM (inactive)
K562
  GI50: 33.7 µM (inactive)
SF-539
  GI50: 87.5 µM (inactive)
KM12
  GI50: > 100 µM (inactive)
NCI-H522
  GI50: 20.1 µM (inactive)
A549
  GI50: > 100 µM (inactive)
SN12C
  GI50: 41.2 µM (inactive)
HCT-116
  GI50: 46 µM (inactive)
BT-549
  GI50: 32.7 µM (inactive)
MCF7
  GI50: 18.2 µM (inactive)
NCI-H23
  GI50: > 100 µM (inactive)
RXF 393
  GI50: 39.2 µM (inactive)
HOP-62
  GI50: > 100 µM (inactive)
UACC-62
  GI50: 28.6 µM (inactive)
UACC-257
  GI50: > 100 µM (inactive)
OVCAR-5
  GI50: > 100 µM (inactive)
MDA-N
  GI50: 33.6 µM (inactive)
DU-145
  GI50: 78.3 µM (inactive)
RPMI-8226
  GI50: 32.4 µM (inactive)
HCT-15
  GI50: 33.1 µM
SK-MEL-28
  GI50: 31.3 µM (inactive)
HL-60
  GI50: 37.8 µM (inactive)
COLO 205
  GI50: > 100 µM (inactive)
